The test system of data set [1] is rat primary cortical neurons. As to the kind of experiment: Neuron survival assay against NMDA insult (LDH release). To be noted: NMDA 20 μM; for protection of rat primary cortical neurons from NMDA insults (LDH release, fold change vs DMSO): compounds 10-30 μg/ml, 11 DIV; for cell death (LDH release, cell cytotoxicity vs DMSO): compound 10 μg/mL, DIV 11. In kind it is cell-based. As to the method: Primary cortical and hippocampal neurons were prepared from embryonic day 18 (E18) Sprague-Dawley rats. Neurons were plated on 24-well plate (TPP, Corning) at a density of 2×10^5 cells per well using Neurobasal medium (Invitrogen) supplemented with 2% B27 (Invitrogen). Neurons at 11-12 days in vitro (12 DIV) were subjected to drug treatment. Neurons were pretreated with the test compound for 2 hours prior to NMDA treatment. 0.1 μM (+)-MK-801 Hydrogen Maleate (Sigma) was added as a positive control. Briefly, the neurons were rinsed with Locke's solution (5 mM potassium chloride, 128 mM sodium chloride, 2.7 mM calcium chloride, 1 mM di-sodium hydrogen orthophosphate, 5 mM HEPES and 10 mM glucose in Milli-Q water) without Mg^2+, and incubated with addition of glycine (10 μM) for 15 minutes. After the incubation, the neurons were co-treated with the test compound (dissolved in Locke's plus glycine solution) and NMDA (20 μM; Sigma) for 20 minutes. Neurons were rinsed with Locke's plus Mg^2+ and replaced with fresh growth medium. The cell death was assayed and quantified using the lactate dehydrogenase release assay (Roche) after 24 hours.
Embryonic rat cortical neurons (11 DIV) were treated with NMDA (20 μM) in the absence or presence of the LC series of compounds (10-30 μg/ml). […] LDH release in the medium after overnight incubation was measured and fold change was calculated when compared to the solvent control, DMSO.
Embryonic rat cortical neurons (DIV 11) were treated with NMDA (20 μM) in the absence or presence of LC-01 or LC-02 (μg/mL). LDH release in the medium after overnight incubation was measured and cell cytotoxicity was calculated in percentage when compared to the solvent control, DMSO.
Embryonic rat cortical neurons (DIV 11) were treated with NMDA (20 μM) in the absence or presence of LC-06 (μg/mL). LDH release in the medium after overnight incubation was measured and cell cytotoxicity was calculated in percentage when compared to the solvent control, DMSO.
Embryonic rat cortical neurons (11 DIV) were treated with NMDA (20 μM) in the absence or presence of LC-24 or LC-25 (μg/mL). LDH release in the medium after overnight incubation was measured and cell cytotoxicity was calculated in percentage when compared to solvent control (DMSO).

The subject of another data set is NMDA receptor. As to the kind of experiment: Whole-cell patch clamp of NMDA-induced current in hippocampal neurons. In kind it is cell-based, rat. To be noted: for pooled NMDA current responses (normalized peak and plateau currents) / recovery of NMDA-induced current after compound was washed out: compound 500 uM co-applied with NMDA 200 uM; for pooled NMDA current responses (normalized peak and plateau currents): vs DMSO, n=6; for recovery of NMDA-induced current after compound was washed out: single hippocampal neuron. As to the method: Hippocampal neurons were prepared from embryonic day 18 Sprague-Dawley rats. After the hippocampus had been removed from the brain, isolated cells were plated onto Poly d-Lysine (PDL) (P0899, Sigma)-coated 35 mm dishes (153066, NUNC) at a density of 3×10^5 cell per plate using Neurobasal Medium (NB) (21103-049, Gibco) with B27 supplement (17504-044, Gibco), penicillin/streptomycin (15140, Gibco) and 1 mM L-glutamine (25030, Gibco). The cell culture was incubated at 37° C. in a humidified atmosphere of 5% CO2 in air. Half of the medium was changed with NB, B27 and 50 μM L-glutamine every 2 to 3 days. On day 12 in vitro (12 DIV), whole-cell patch clamp was performed. The internal solution contained 120 mM cesium chloride, 20 mM tetraethylammonium chloride, 2 mM magnesium chloride, 1 mM calcium chloride and 10 mM HEPES (pH 7.2). The external solution contained 137 mM sodium chloride, 1 mM sodium bicarbonate, 0.34 mM sodium phosphate dibasic, 5.37 mM potassium chloride, 0.44 mM potassium phosphate monobasic, 2.5 mM HEPES (pH 7.4) and 22.2 mM glucose. Samples mixed with 50 μM NMDA (M3262, Sigma) were arranged in linear array of up to 8 individual controlled pipes (List Medical, Germany) which were connected to solution reservoirs. Memantine (10 μM, M9292, Sigma) was used as a positive control. Pipettes were fire-polished to produce a pipette resistance of 3-5 MΩ. Holding potential of patched cells was kept at −80 mV and currents were recorded using Axopatch-200B amplifier (Axon Instruments, USA). Tetrodotoxin (5 μM) and bicuculline methiodide (20 μM) (0109, Tocris) were present in the bath solution to block synaptic transmission mediated by voltage-gated sodium channels and […], respectively. Data was analyzed by pClamp9 software and percentage of inhibition on NMDA-induced current was represented in comparison to solvent control.
The NMDA receptor is a gated ion channel, which allows inflow of current during a nerve impulse. Antagonists to the receptor would prevent the inflow of current.
In FIG. 1A, hippocampal neurons from embryonic day 18 rats were isolated, trypsinized, plated onto 35-mm plates at a density of 3×10^4 cells/plate and cultured in Neurobasal medium (NB) supplemented with B27 nutrient. Rat hippocampal neurons (10-14 DIV) were treated with NMDA (50 μM) in the absence or presence of the compound LC-02 (10 μg/mL). Data is presented as % of NMDA-induced current. DMSO is the solvent control.
In FIG. 1B, NMDA antagonistic effect of LC-02 on current responses of a single hippocampal neuron. NMDA (200 uM) was applied for 2.5 sec every 30 sec but these inter-response intervals have been deleted from the above figure for a better resolution of the kinetics of individual responses (blank space in trace). LC-02 (500 uM) was co-applied with NMDA.
In FIG. 1C, effects of LC-02 on pooled NMDA current responses. Normalized peak and plateau currents are shown in the absence (DMSO) and presence of LC-02.
In FIG. 8, (a) NMDA antagonistic effect of LC-06 on current responses of a single hippocampal neuron. NMDA (200 uM) was applied for 2.5 sec every 30 sec but these inter-response intervals have been deleted from the above figure for a better resolution of the kinetics of individual responses (blank space in trace). LC-06 (500 uM) was co-applied with NMDA. […] (b) Effects of LC-06 on pooled NMDA current responses. Normalized peak and plateau currents are shown in the absence (DMSO) and presence of LC-06.
In FIG. 9, (a) NMDA antagonistic effect of LC-24 on current responses of a single hippocampal neuron. NMDA (200 uM) was applied for 2.5 sec every 30 sec but these inter-response intervals have been deleted from the above figure for a better resolution of the kinetics of individual responses (blank space in trace). LC-24 (500 uM) was co-applied with NMDA. […] (b) Effects of LC-24 on pooled NMDA current responses. Normalized peak and plateau currents are shown in the absence (DMSO) and presence of LC-24. […]

For `CC[C@H]1N[C@@H](CC(C)C)C(CC)(CC)O1` [LC-02], in data set [1], the “protection of rat primary cortical neurons from NMDA insults (LDH release, fold change vs DMSO)” value is recorded as “significantly protected” and the “cell death (LDH release, cell cytotoxicity vs DMSO)” value is “cell death was markedly reduced”. In addition, the “NMDA induced current in hippocampal neurons” value with NMDA receptor (compound 10 μg/mL with NMDA 50 μM, rat hippocampal neurons 10-14 DIV) is on record as “decreases in NMDA induced current”. Also, in the data set on NMDA receptor, the “pooled NMDA current responses (normalized peak and plateau currents)” value was “significantly inhibits NMDA-induced current”; the “recovery of NMDA-induced current after compound was washed out” value is given as “Partial recovery of NMDA-induced current”.
`CCCC1(CCC)O[C@@H](CC)N[C@H]1CC(C)C` [LC-06]: in data set [1], the “protection of rat primary cortical neurons from NMDA insults (LDH release, fold change vs DMSO)” value is listed as “significantly protected” and the “cell death (LDH release, cell cytotoxicity vs DMSO)” value was “cell death was markedly reduced”. Moreover, in the data set on NMDA receptor, the “pooled NMDA current responses (normalized peak and plateau currents)” value is given as “significantly inhibits NMDA-induced current”; the “recovery of NMDA-induced current after compound was washed out” value is recorded as “Partial recovery of NMDA-induced current”.
The corresponding values for `CC[C@H]1N[C@@H](Cc2ccccc2)C(CC)(CC)O1` [LC-24] are “significantly protected”, “cell death was markedly reduced”, “significantly inhibits NMDA-induced current” and “Partial recovery of NMDA-induced current”.

The record behind these values is patent US8722714B2, “Oxazolidine derivatives as NMDA antagonists” (The Honk Kong University of Science and Technology, priority 2008, dated 2014).
